The values that follow come from patent US20130053323A1, “METHODS AND USE RELATED TO HUMANIN AND HUMANIN-LIKE PEPTIDES” (priority 2009, published 2013).

One data set has as its system male Wistar rats. The settings on record: cited from earlier work.
For the next data set, the system named is growth plate. An excerpt: The proteasome inhibitors (PIs), including bortezomib (Velcade™, PS-341), belong to another novel and promising group of CT that has past phase I clinical trials (Blaney, Bernstein et al. 2004) and are now under phase II clinical trials in pediatric cancers. However, secondary effects on normal bystander tissues of primary life saving modalities are so far unknown.

For data set [1], the system named is fetal rat metatarsal bones. The experiment in a line: Longitudinal growth of cultured fetal rat metatarsal bones. The data set is classed as cell-based. On the procedure: The three middle metatarsal bone rudiments were dissected out from the paws of 20-day-old embryos (E20) (De Luca, Barnes et al. 2001). After dissection, bones were transferred to 24-well plates, one bone per well and cultured in 0.5 ml phenol-red MEM medium supplemented with 0.2% endotoxin-free fraction BSA, […] β-glycerophosphate, 0.05 mg/ml ascorbic acid and 100 μg/ml penicillin/streptomycin at 37° C. under 5% CO2 in humidified atmosphere. Medium was changed every 2-3 days. Images were captured at days 0, 2, 5, 7, 9 and 12 of culture, using a Hamamatsu C4742-95 digital camera mounted on a Nikon SMZ-U microscope. The Image-Pro plus™ (Media Cybernetics, USA) software was used to measure longitudinal growth. Metatarsal bone growth is expressed as a percentage of the length at the day of dissection (regarded as day 0). Treatment with CT (bortezomib), dexamethasone and/or HNG (S14G) was started 2-4 hours after dissection. All isolated bones were pooled and then randomly divided into the different treatment groups (4 to 6 bones per group). Each experiment was repeated at least 3 times.
The data shown in FIG. 2A indicates novel growth promoting/protective effects of humanin analog HNG (S14G) on longitudinal bone growth in cultured fetal rat metatarsal bones. […] Briefly, fetal rat metatarsal bones were pre-treated with different concentrations (mentioned in the figure) of HNG (S14G), 30 min prior to addition of Dexa. […] (n=4-6 bones/group)
CT (bortezomib) is a cytotoxic drug known to cause critical alterations in cells/tissues and disturb the cellular homeostasis. To test the effect of CT (bortezomib) on chondocytes and longitudinal bone growth, the established in vitro model of fetal rat metatarsal bones was used. These bones were collected as described in material and methods, cultured and treated with different concentrations of CT (bortezomib) under sterile conditions for up to 12 days. […] Apoptosis was analyzed in whole growth plate sections of 12-day cultured rat metatarsal bones (perichondrium excluded) by applying the TUNEL technique to detect DNA fragmentation.
In an attempt to block and prevent the negative effects on growth after CT (bortezomib)-treatment, recently discovered humanin analog HNG (S14G) was tested in vitro in fetal rat metatarsal bones.

For the next data set, the system named is FVB mice. The data set can be described thus: Dexa-induced growth retardation in FVB mice (tibia length, nose to anus length). Format: in vivo. The note with it: Dexa 20 μg/mice/day s.c. On the procedure:
Four weeks old female mice FVB strain were obtained from Charles-River, Germany. The mice were kept in animal facility under a 12-h light, 12-h dark schedule with water ad libitum. After an adaptation period, mice were injected with Dexa dissolved in saline (20 μg/mice) subcutaneously in the neck every day for 1 week (short-term). Whereas, HNG (S14G) dissolved in saline (1 μg/mice) was injected intraperitoneally, 45 minutes prior to Dexa injection. The vehicle group received saline only. After one week of treatment/injections, animals were sacrificed and the back legs (femur and tibia) were collected. The skin and muscle from the tibia was removed and final length of tibia was measured by using electronic digital caliper as reported previously (Zaman, Menendez-Benito et al. 2007).
In another study, four weeks old female mice FVB strain (Charles-river, Germany) were injected with Dexa dissolved in saline (20 μg/mice) subcutaneously in the neck every day for four week (long-term). Whereas, HNG (S14G) dissolved in saline (1 μg/mice) was injected intraperitoneally, 45 minutes prior to Dexa injection. The vehicle group received saline only. The total body length (nose to anus) was measured (centimeters, cm) manually (blinded, the cadges were coded on the day of measurment), every week. After 4 weeks of treatment, animals were sacrificed by inhalation of CO2, tissue samples (both left and right leg) were collected for subsequent analysis.
HNG injections were given […] prior to Dexa injections. […] After this, we next asked whether HNG (S14G) has any protective effects on bone growth after long-term treatment with Dexa (FIG. 3A). To investigate this, we treated mice for 4 weeks (group 2) with Dexa (20 μg/mice/day) and HNG (1 μg/mice/day). […] In FIG. 3B, total growth of the animals, nose to anus length (cm, manually) was analyzed in vehicle, Dexa, HNG (S14G) and Dexa/HNG (S14G) treated animals after four weeks of injections. **p<0.01 by 1-way ANOVA analyses, n=9-10/animals/group).

The next data set relates to growth plate cartilage. The data set can be described thus: Growth plate histology, resting and proliferating chondrocyte zone (R+P). The note with it: Dexa alone, four weeks. The data set is classed as in vivo, mice. How it is done:
Four weeks old mice (female, FVB) were injected with Dexa dissolved in saline ([…]) subcutaneously in the neck every day for four week. Whereas, HNG (S14G) dissolved in saline (1 μg/mice) was injected intra-peritoneally, 45 minutes prior to the Dexa injection for four weeks, for details see materials and methods. The femur and tibia bones were dissected out and fixed in 4% formalin for 24 hrs, followed by decalcification in 10% EDTA and embedded in paraffin blocks. Five-micrometer-thick sections were prepared from these paraffin blocks. The sections were prepared from the tibial growth plate and stained with Van Gieson. Digital images of stained sections were collected using a Nikon Eclipse E800 microscope (Nikon Corp., Tokyo, Japan) equipped with an Olympus DP70 digital camera (Olympus Sverige AB, Solna, Sweden).
Since a positive effect of HNG (S14G) on bone growth was identified, different zones of chondrocytes were analyzed (resting, proliferative and hypertrophic) in growth plate cartilage, to identify visible changes in these zones. […] These micropgraphas also explain the longitudinal bone growth promoting effects by HNG (S14G) alone or in combination with Dexa.

With `CN(Cc1cnc2nc(N)nc(N)c2n1)c1ccc(C(=O)N[C@@H](CCC(=O)O)C(=O)O)cc1` [methotrexate], the “reduction in tibia length” value in the data set on male Wistar rats is 5%.
As to `CC(C)C[C@H](NC(=O)[C@H](CC(C)C)NC(=O)[C@H](CC(C)C)NC(=O)OCc1ccccc1)B(O)O` [MG262], in the data set on growth plate, the “effect on growth plate and growth” value is “permanent growth retardation and chondrocyte cell death”.
Consider Colivelin, for which the “protection against Dexa-induced bone growth retardation” value in data set [1] (colivelin 100 μM combined with Dexa 1 μM) is recorded as “some protective effect against Dexa-induced bone growth retardation”. Besides, the longitudinal growth result in data set [1] (colivelin alone, cultured for 12 days) is “some stimulatory effect on longitudinal growth”.
As to `C[C@@H]1C[C@H]2[C@@H]3CCC4=CC(=O)C=C[C@]4(C)[C@@]3(F)[C@@H](O)C[C@]2(C)[C@@]1(O)C(=O)CO` [Dexa, Dexamethasone, reference compound], the longitudinal bone growth entry in data set [1] (Dexa 1 μM alone) is reported as “induced growth retardation”. Besides, in the data set on FVB mice (1 week), the “growth (tibia length)” value is “significantly induced growth retardation”. The “growth (nose to anus length)” value in the data set on FVB mice (4 weeks, vs vehicle) was “significantly growth retarded”. In the data set with growth plate cartilage, the “size of resting and proliferating chondrocyte zone (R+P)” value is reported as “appears smaller”.
Regarding `COc1cccc2c1C(=O)c1c(O)c3c(c(O)c1C2=O)C[C@@](O)(C(=O)CO)C[C@@H]3O[C@H]1C[C@H](N)[C@H](O)[C@H](C)O1` [doxorubicin], the “reduction in tibia length” value in the data set on male Wistar rats is listed as 18%.
